Measurements reported in paper PMC11291853, “Haemodynamic, hormonal and renal actions of osteocrin in normal sheep” (Experimental Physiology, 2024).
Where “and” joins values, the source holds several entries; their conditions need not be identical. Equal entries are not always repeated. Where no end group is shown, it is not given here.

Key:
[1] = Plasma OSTN concentration, metabolic clearance rate and half-life during and after stepped I.V. infusion (OSTN RIA); assay type: in vivo, sheep; conditions: mean ± SD; for level at time molar at 1 h: sheep, sheep n = 8, RIA
Experimental: (§1) Sheep received I.V. infusions of increasing doses of ovine proOSTN (83–133), the putative 51 aa circulating peptide (at 2.5, 25 and 250 pmol/kg/min for 1 h each; Mimotopes, Melbourne, Victoria, Australia) and a vehicle control (0.9% saline) administered on separate days, ≥1 day apart, in a balanced random order.
(§2) Venous blood samples were obtained at 30 min and immediately preceding commencement of the first infusion (baseline) and at 30 min intervals for the duration of the study day. Samples were taken into tubes on ice, centrifuged at 4°C and stored at −20°C before assaying. Following extraction over C18 SepPac cartridges (Waters Corp., Milford, MA, USA), plasma concentrations of cGMP (Charles et al., [1990]), ANP (Charles et al., [1990]), BNP (Pemberton et al., [1997]), CNP (Charles et al., [1995]) and N‐terminal proCNP (NTproCNP) (Wilson et al., [2015]), were measured by radioimmunoassay (RIA) as previously described. Non‐extracted plasma renin activity (PRA) (Dunn & Espiner, [1976]) and aldosterone (Lun et al., [1983]) were measured as previously described. Cyclic AMP was measured by enzyme‐linked immunosorbent assay (catalogue no. ADI‐900‐163; Enzo Life Sciences, Farmingdale, NY, USA). For each analyte, all samples from individual animals were measured in the same assay to avoid interassay variability. Haematocrit concentrations were measured with every blood sample taken.
Osteocrin concentrations in the infusate were measured to calculate the infusion rate and metabolic clearance rate (MCR) of the peptide (MCR = infusion rate/plateau − baseline level).
Human proOSTN (83–112) […] was iodinated using 0.5 mCi Na^125I in the presence of […] chloramine‐T in […] phosphate buffer, pH 7.5, for 20 s, followed by the addition of 50 mg cysteine, 25 mg BSA and 20 mg KI in […] buffer. The resulting mixture was loaded onto a 10 cm RP300 Brownlee column and eluted with a gradient from 0% to 60% acetonitrile in 49 mmol/L KH2PO4 buffer, pH 2.9, over 30 min at 1 mL/min, collecting 0.5 mL fractions. The fraction containing the major peak of radioactive [^125I]‐proOSTN (83–112) was used in the RIA. Peptide standards were made from synthetic human proOSTN (83–133) taking into account the purity data supplied. All standards, sample extracts, antisera and tracer solutions were made up in pH 7.4 assay buffer (0.1% BSA in 0.1 M phosphate buffer). Fifty microlitres of sample extract or 1−1000 pmol/L of human proOSTN (83–133) standard (all in duplicate) were incubated with 50 μL antiserum H‐028‐68 (Phoenix Pharmaceuticals) at a dilution of 1:20,000 for 24 h at 4°C, followed by addition of 50 μL of tracer solution [^125I]‐proOSTN (83–112) containing 3000 cpm for an additional 24 h at 4°C. Bound and free [^125I]‐proOSTN (83–112) were separated by a solid‐phase second antibody method (Sac‐Cell, Donkey‐Anti Rabbit; IDS, UK), and the radioactivity in the bound [^125I]‐proOSTN (83–112) pellet was measured in a PerkinElmer Wizard2 10‐Detector Gamma Counter. Ovine concentrations of OSTN were extrapolated from the human standards, taking into account ovine proOSTN (83–133) cross‐reactivity. Ovine proOSTN (83–112) cross‐reactivity in the ANP, BNP and CNP RIA was <0.005%.

normal conscious sheep [2] = assay: Plasma ANP, BNP, CNP and NTproCNP responses to stepped OSTN infusion (RIA); assay type: in vivo; conditions: for Plasma ANP / Plasma BNP / Plasma CNP: sheep n = 8, mean ± SD
Experimental: as §1, §2

normal conscious sheep [3] = assay: Plasma renin activity and aldosterone responses to stepped OSTN infusion; assay type: in vivo; conditions: sheep n = 8, mean ± SD
Experimental: as §1, §2

[4] = end of 60 min OSTN infusion 2.5 pmol/kg/min
[5] = end of 60 min OSTN infusion 25 pmol/kg/min
[6] = end of 60 min OSTN infusion 250 pmol/kg/min
[7] = 1 h, end of OSTN 2.5 pmol/kg/min I.V.
[8] = 2 h, end of OSTN 25 pmol/kg/min I.V.
[9] = 3 h, end of OSTN 250 pmol/kg/min I.V.
[10] = 4 h, 1 h after end of infusions
[11] = 5 h, 2 h after end of infusions

SFSGFGSPLDRLSAGSVSHKGKQRKVVDHPKRRFGIPMDRIGRNRLSNSRG [OSTN]
half-life ([1]; Coopworth, plasma, iv, normal sheep, after end of 250 pmol/kg/min infusion, samples at 1-15 min, read-out: Osteocrin plasma half-life): 5.7 ± 1.8 min
level at time molar at 1 h ([1]; Coopworth, plasma, iv, 2.5 pmol/kg/min, end of 60 min I.V. infusion at 2.5 pmol/kg/min): 0.0287 ± 0.008 nM
level at time molar at 1 h ([1]; Coopworth, plasma, iv, 25 pmol/kg/min, end of 60 min I.V. infusion at 25 pmol/kg/min): 0.48 ± 0.195 nM
level at time molar at 1 h ([1]; Coopworth, plasma, iv, 250 pmol/kg/min, end of 60 min I.V. infusion at 250 pmol/kg/min): 6.09 ± 0.75 nM
Osteocrin plasma half-life ([1]; normal sheep, after end of 250 pmol/kg/min infusion, samples at 1-15 min): ~6 min
Plasma ANP (normal conscious sheep [2]; [4]): 24.3 ± 10.1 pmol/L and 24 pmol/L
Plasma BNP (normal conscious sheep [2]; [4]): 2.0 ± 0.5 pmol/L
Plasma CNP (normal conscious sheep [2]; [4]): 1.21 ± 0.30 pmol/L and 1.2 pmol/L
Plasma ANP (normal conscious sheep [2]; [5]): 27.6 ± 10.2 pmol/L
Plasma BNP (normal conscious sheep [2]; [5]): 3.1 ± 0.9 pmol/L
Plasma CNP (normal conscious sheep [2]; [5]): 2.13 ± 0.50 pmol/L
Plasma ANP (normal conscious sheep [2]; [6]): 33.0 ± 14.2 pmol/L
Plasma BNP (normal conscious sheep [2]; [6]): 3.9 ± 2.3 pmol/L
Plasma CNP (normal conscious sheep [2]; [6]): 3.81 ± 1.30 pmol/L
Plasma NTproCNP (normal conscious sheep [2]; stepped OSTN infusions 2.5, 25, 250 pmol/kg/min vs vehicle, P = 0.064): no significant effect
Plasma aldosterone (normal conscious sheep [3]; [7]): 199 ± 156 pmol/L
Plasma renin activity (normal conscious sheep [3]; [7]): 0.153 ± 0.070 nmol/L/h
Plasma aldosterone (normal conscious sheep [3]; [8]): 176 ± 137 pmol/L
Plasma renin activity (normal conscious sheep [3]; [8]): 0.153 ± 0.065 nmol/L/h
Plasma aldosterone (normal conscious sheep [3]; [9]): 167 ± 157 pmol/L
Plasma renin activity (normal conscious sheep [3]; [9]): 0.155 ± 0.075 nmol/L/h
Plasma aldosterone (normal conscious sheep [3]; [10]): 153 ± 142 pmol/L
Plasma renin activity (normal conscious sheep [3]; [10]): 0.186 ± 0.109 nmol/L/h
Plasma aldosterone (normal conscious sheep [3]; [11]): 192 ± 130 pmol/L
Plasma renin activity (normal conscious sheep [3]; [11]): 0.241 ± 0.181 nmol/L/h
